# Measurements: patent EP0663826B1, “AMINO ACIDS CONTAINING PARENTERAL FORMULATIONS FOR THE TREATMENT OF HYPOTENSION AND RELATED PATHOLOGIES” (BOARD OF REGENTS THE UNIVERSITY OF TEXAS SYSTEM, priority 1991, dated 1993)
# Tests used:
# [1] = system: endotoxin-induced shock in dogs; assay: Endotoxin-induced hypotension in dogs (with nitroglycerin and control dogs); assay type: in vivo
# Experimental: Animals: Studies were carried out on 12 conditioned mongrel dogs (9 males and 3 females) weighing 22-32 kg (avg=25.3 kg). Animal care was in accordance with the recommendations of the American Association for Accreditation of Laboratory Animal Care, and met all standards prescribed by the Guide for the Care and Use of Laboratory Animals (Guide for the Care and Use of Laboratory Animals (1978) Dept. of Health, Education and Welfare, Washington, D.C. (Publ. No. 78-23). Animal protocols were approved by The University of Texas Animal Welfare committee. The dogs were fasted overnight prior to the day of experimentation. They were anesthetized with sodium pentobarbital (25 mg/kg i.v.). Dogs were then endotracheally intubated and ventilated with a piston-driven respirator (Harvard instruments) using room air at a tidal volume of 15 ml/kg and at a rate of 12 to 14 breaths per minute, adjusted to achieve a normal arterial pH and pCO2 (Instrumentation Laboratories lL1302 pH/Blood Gas Analyzer). Catheters were placed percutaneously into the femoral and pulmonary arteries; In the latter, a flow-directed thermal-dilation catheter was used (Abbott Critical Care Systems).
# Physiologic measurements: Mean SAP and heart rate were continuously monitored (Parametron 7048 Monitoring System, Roche) and stored on a magnetic disk using an analog-to-digital converter (Scientific Solutions, Inc.). Cardiac output (CO) was determined as the mean of six measurements by thermal-dilution. Systemic vascular resistance was calculated as (SAP X80)/CO and expressed as dynes-sec/cm^5 (kg/s·cm^4).
# Protocol: After the blood pressure and heart rate stabilized, endotoxin (40 µg/kg, in 10 ml of phosphate-buffered saline (PBS), pH 7.4) was infused i.v. over 2 minutes. This dose of endotoxin typically induces severe and often lethal cardiovascular collapse in the dog. Blood pressure was monitored, and when either SAP fell below 60 mm Hg or a stable nadir in systemic arterial pressure (SAP) was maintained for 10 minutes, L-NMA was administered (20 mg/kg in 5 ml of PBS i.v. over 1 min.). In most experiments, L-arginine (400 mg/kg in 20 ml PBS) was administered ten minutes later by i.v. infusion over 2 minutes. In control experiments, dogs without prior exposure to endotoxin received L-NMA alone. To simulate the hypotension observed in dogs receiving endotoxin, one group of dogs received a continuous i.v. infusion of nitroglycerin (2 mg/ml) at a rate adjusted to maintain the SAP at 60-70 mm Hg. Nitroglycerin-treated dogs then received L-NMA (20 mg/kg) and 20 minutes later L-arginine was administered ([…]).
# Statistics: Statistical significance was evaluated using Student's test and either a one-tailed or two-tailed analysis as appropriate for comparisons.
# [2] = system: hypotension associated with the administration of TNF in the dog; assay: TNF-induced hypotension in the dog; assay type: in vivo, dogs; conditions: L-arginine to previously untreated normotensive dogs
# Experimental: Recombinant human TNF, specific activity 2 x 10^7 units/mg, was from the Dainippon Chemical Corporation, Tokyo, Japan. TNF was administered at a dose of 10 µg//kg in a volume of 10 ml of phosphate buffered saline containing 17 mg/ml of dog albumin. […] Arginine was obtained from Sigma Chemical Company, St. Louis, Mo.
# Four conditioned mongrel dogs, 2 males and 2 females, weighing 28 to 30 kg, were studied. Care of the animals were in accordance with the recommendations of the American Association for Accreditation of Laboratory Animals [DHEW(DHHS) publication no. (NIH) 78-23, revised, 1978]. On the day of the experiment, the dogs were fasted overnight. They were anesthetized with phenobarbital (25 mg/kg). The animals were then intubated orally with a #10 fr. endotracheal tube and ventilated with a Harvard pump ventilator at a rate of 14 breaths per minute and a tidal volume of 15 ml/kg. An arterial line was percutaneously placed in the femoral artery on the day of the experiment.
# Mean (electronic) and phasic systemic arterial pressures (SAP) were continuously recorded on a Hewlett-Packard recording system (model 7758B) using strain gauge manometers (Hewlett-Packard model 1290A) which were connected to the arterial line. Heart rate (HR) was determined from an EKG tracing and continuously recorded on the Hewlett-Packard recording system. Oxyhemoglobin saturation (SaO2) was obtained using a pulse oximeter (BIOX 111, Boulder, CO). Continuous time-series records of SAP, HR, and SaO2 were obtained using a Lab Master analog-to-digital convertor (16 channel, 12 bit, 30 kHz; Scientific Solutions, Inc.) sampling at 55 Hz and storing the 6 sec averages on a magnetic disk.
structure (smiles),measurement,setting,value
N=C(N)NCCC[C@H](N)C(=O)O [L-arginine],ΔSAP after L-arginine,"[1]; Figure 6 dog, endotoxin and 2 doses L-NMA",-77 mm Hg
same,Cardiac Output,"[1]; Study 1: Endotoxin-treated dogs (n=4), means ± S.E., same sequence, baseline 2.99 ± 0.32",2.99 ± 0.32 L/min
same,Heart Rate,"[1]; Study 1: Endotoxin-treated dogs (n=4), means ± S.E., same sequence, baseline 119.5 ± 6.0",119.5 ± 6.0 beats/min
same,Systemic Vascular Resistance,"[1]; Study 1: Endotoxin-treated dogs (n=4), means ± S.E., same sequence, baseline 3565 ± 454",3565 ± 454 dynes-sec/cm^5
same,Systemic Arterial Pressure,"[1]; Study 1: Endotoxin-treated dogs (n=4), means ± S.E., sequence endotoxin 40 µg/kg, L-NMA 20 mg/kg, 10 min later L-arginine 400 mg/kg (measured 2 min later), baseline 128.3 ± 9.4",128.3 ± 9.4 mmHg
same,Systemic Vascular Resistance,"[1]; Study 1: Endotoxin-treated dogs (n=4), means ± S.E., value in brackets",3.565 ± 0.454 Kg/s·cm^4
same,Cardiac Output,"[1]; Study 2: Nitroglycerin-treated dogs (n=3), means ± S.E., baseline 3.14 ± 0.21",5.15 ± 1.08 L/min
same,Heart Rate,"[1]; Study 2: Nitroglycerin-treated dogs (n=3), means ± S.E., baseline 143.7 ± 12.1",148.7 ± 19.9 beats/min
same,Systemic Vascular Resistance,"[1]; Study 2: Nitroglycerin-treated dogs (n=3), means ± S.E., baseline 3294 ± 74",1088 ± 491 dynes-sec/cm^5
same,Systemic Arterial Pressure,"[1]; Study 2: Nitroglycerin-treated dogs (n=3), means ± S.E., continuous nitroglycerin (2 mg/ml) titrated to SAP 65 mm Hg, then L-NMA 20 mg/kg, then L-arginine, baseline 129.3 ± 10.2",57.0 ± 13.0 mmHg
same,Systemic Vascular Resistance,"[1]; Study 2: Nitroglycerin-treated dogs (n=3), value in brackets",1.088 ± 0.491 Kg/s·cm^4
same,effect on the pressor effect of L-NMA,"[1]; control dogs, L-arginine 400 mg/kg",fully reversed
same,effect on blood pressure,[2],not affected
